Measurements reported in PMC6468270, “Recognition of ASF1 by Using Hydrocarbon‐Constrained Peptides” (Chembiochem, 2019).
“And” between values parts separate entries of the source, which are not always exact repeats. Identical values can stand only once. Like-named read-outs stand apart in the source and are kept apart here. Starred links: 1 amine or outer side, 2 acyl side, 3 side chain; linkers in the order of their positions; H or OH if unused. Positions of bridges follow the written chain, without caps; N, C: chain ends. Non-standard residues stand in square brackets, D forms with d. Residues, ends and D or L forms follow the SMILES beside them. Nle(6-ylidene) = O=C([C@H](CCCC=[*:3])N[*:1])[*:2]

Key:
[1] = Circular dichroism (CD), % helicity; type: physicochemical; details: 100 μM peptide in 40 mM sodium phosphate, pH 7.5, 293 K, scans in duplicate
Protocol: The helical character of all three peptides was investigated by using circular dichroism (CD) in both 40 mM phosphate buffer and trifluoroethanol (TFE). […] (Figure 2).
Circular Dichroism was performed on an Applied Photophysics ChiraScan Apparatus and Software.
For each scan, the following parameters were used: 180-260 nm range; point time 1 s; 1 nm per point; step = 1; bandwidth 4.3 nm; path length 1 mm; temperature 20 °C. Scans were done in duplicate.
Samples were dissolved in 4 0 mM sodium phosphate b uffer pH 7.50 at concentration of 100 μM.
Where θ = circular dichroism at a given wavelength, c = molar concentration, l = path length in cm, R = number of residues in the peptide sequence.
Figure ESI 1. Conformational analyses of histone H3 variant peptides by circular dichroism (CD) analyses (peptide concentration =100 μM, 40 mM sodium phosphate (or 40 mM sodium phosphate/ […]
(§1) Expression and Purification of ASF-1
(§2) Recombinant human ASF1 (ASF1A(1-156)) was purified as already described from expression in E. coli of a (His)6–GST –Tev site–Asf1 fusion protein using the pETM30 plasmid. Briefly, soluble (His)6-tagged GST fusion protein was purified on reduced glutathione (GSH) agarose beads (Sigma).
(§3) After cleavage with recombinant (His)6-TEV protease at room temperature overnight, the (His)6-GST tag and the protease were trapped in a Ni-NTA agarose column (Qiagen). The flow-through fraction containing ASF1 proteins was further purified by anion exchange chromatography using a Resource Q 6mL column (GE Healthcare). ASF1 was then concentrated using an Amicon device (Millipore) and the buffer was replaced with a 50mM Tris-HCl (pH7.5). Unlabled ASF1 used for ITC experiments was purified from pellets of bacteria grown in LB medium, and uniformly labelled ASF1 from bacteria gown in M9 minimal media supplemented with (15NH4)Cl (Eurisotop,0.5 g.l−1) as the sole nitrogen source.
(§4) (1 picture or pasted object on this page, not shown here)

trypsin = test: Proteolysis assay with trypsin; type: in vitro ADME
Protocol: (§5) The proteolytic stability of the peptides was also investigated by using trypsin and proteinase K. The unconstrained H3_118–135 was cleaved within 14 minutes by both proteases (Figure 4, Table 2 and the Supporting Information), whereas the constrained peptides had increased stability depending on the position of the constraint. […]
(§6) The experiment wells contained aqueous buffer (50 mM Tris, pH 8, 100 mM NaCl, 170 µL) to which peptide solution (10 µL, 1 mM in H2O) and enyzme solution (20 µL 0.5 µg/ml trypsine or 20 µL 1 µg/ml proteinase K) was added. Final concentrations in the experiment wells were 50 µM peptide, 0.05 µg/ml trypsine or 0.1 µg/ml proteinase K. A control experiment was started at the same time without the enzymes. 10 µL aliqouts of the reaction were quenched at different time-points using 90 µL 2% TFA solution. Samples were measured using LC-ESI-MS on a Bruker Maxis impact mass spectrometer equipped with a Thermo Ultimate 3000 UPLC. All samples were run on an Acquity BEH C4 column using a gradient of 1-90% B (A: H2O + 0.1 % formic acid, B: ACN + 0.1 % formic acid) over 4 minutes.
(§7) Intact peptide content was determined relative to the t=0 time-point based on HPLC peak areas. Curves were fitted using an exponential decay function in Origin Pro 9.

ASF1A(1–156) [2] = biological target: T1, ASF1A(1–156) (Homo sapiens, UniProt Q9Y294); test: Isothermal titration calorimetry (ITC) of peptide binding to ASF1; details: 20°C, 50mM Tris-HCl pH 7.5, protein 10µM, peptide 200µM, at least in duplicate
T1 construct: Recombinant human ASF1 (ASF1A(1-156)) was purified as already described; (His)6-GST-TEV site (N, cleaved yes); made in house; host or cells: E. coli (pETM30 plasmid)
T1 sequence (Q9Y294 1-156): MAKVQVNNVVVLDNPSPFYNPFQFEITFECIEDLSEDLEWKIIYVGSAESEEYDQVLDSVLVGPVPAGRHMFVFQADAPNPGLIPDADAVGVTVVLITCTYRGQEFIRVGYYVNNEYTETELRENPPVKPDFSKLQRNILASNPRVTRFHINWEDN
Protocol: Binding of the peptides to ASF1 was then assessed by isothermal titration calorimetry (ITC; Figure 3, Table 1). […] Strikingly, the binding potency was similar in all three cases, ΔG=−7.3 to −8.0 kcal M ^−1, despite H3_118–135(St123–127)GCA adopting a more helical conformation and therefore presumably being more pre‐organised towards ASF1 recognition. Analyses of the thermodynamic determinants of binding reveal enthalpy–entropy compensation. […] In contrast, for the more helical peptide, H3_118–135(St123–127)GCA, the entropy of binding (TΔS=3.1 kcal M ^−1) was favourable, consistent with the anticipated effect of pre‐organisation; however, the enthalpy of binding (ΔH=−4.2 kcal M ^−1) was less favourable than for the less helical variants. […] Such an effect might arise because the less helical peptides H3_118–135 and H3_118–135(St120–124) form enthalpically favourable backbone hydrogen bonds upon a change in conformation to the helix, whereas the more pre‐organised helix H3_118–135(St123–127)GCA neither gains new hydrogen bonds nor undergoes an entropically costly change in conformation on binding ASF1. Alternatively, differential changes in the solvation of the peptides upon binding could account for such a difference in thermodynamic signature. Either way, the results underscore a limitation in correlating conformational stability against binding potency for the unconstrained (H3_118–135) and constrained (H3_118–135(St123–127)GCA) peptides; although the helical conformation is preferred for H3_118–135(St123–127)GCA, this can be considered as arising from an increase in energy (or destabilisation) of nonhelical conformations for this sequence as opposed to preorganisation of the wild‐type sequence. […]
as §1, §2, §3, §4
Isothermal Titration Calorimetry
All IsoThermal Calorimetry (ITC) experiments were performed in a VP-ITC titration calorimeter (Microcal/Malvern) at 20°C, in a 50mM Tris-HCl pH 7.5 buffer. Protein and peptides concentrations were set to values 10µM and 200µM, respectively. Protein and peptide samples were prepared in the same buffer and degassed (ThermoVac, Malvern). After equilibrating the cell at […], the rotating syringe (310rpm) injected at intervals of 280s, 6µL aliquots of peptide solution into the Asf1 previously introduced in the sample cell until saturation was observed. Raw ITC data were processed with the Origin 7.0 Software (OriginLab, Malvern) using the One-Set of Sites fitting model. All ITC experiments were performed at least in duplicate. […]
as §7

ASF1A(1–156) [3] = biological target: T1, ASF1A(1–156); test: NMR chemical-shift-perturbation study with 15N labelled ASF1A(1–156); type: binding; details: uniformly 15N labelled ASF1A(1–156), mapped on PDB 2IIJ
Protocol: In order to confirm the binding mode of the constrained peptides with ASF1, chemical‐shift‐perturbation studies were carried out for all three peptides (Figure S2) by using uniformly ^15N labelled ASF1A(1–156). The chemical‐shift variation was mapped onto the protein structure of ASF1A–H3 (PDB ID: 2IIJ). All three peptides induced the highest values of chemical‐shift variation and a “slow‐exchange” regime for the ASF1 residues defining the already well characterised H3 binding site (V45–E51, V90–I97, R108–Y111, V146–T147),37, 45 thus confirming the preservation of the specific binding mode for the constrained peptides.

proteinase K [4] = test: Proteolysis assay with proteinase K; type: in vitro ADME; details: Tritirachium album (Parengyodontium album); fitted half-life; 50 mM Tris, pH 8, 100 mM NaCl, room temperature, 50 M peptide, 0.1 g/ml proteinase K (µ lost in print); LC-ESI-MS, intact peptide relative to t=0, exponential decay fit; read-out: Proteinase K t 1/2
Protocol: as §5, §6, §7

proteinase K [5] = biological target: proteinase K (Parengyodontium album, UniProt P06873); test: Proteolysis assay with proteinase K; type: in vitro ADME; details: 50 mM Tris, pH 8, 100 mM NaCl, room temperature, LC-ESI-MS
proteinase K (Parengyodontium album, UniProt P06873), sequence (P06873 106-384, species assumed): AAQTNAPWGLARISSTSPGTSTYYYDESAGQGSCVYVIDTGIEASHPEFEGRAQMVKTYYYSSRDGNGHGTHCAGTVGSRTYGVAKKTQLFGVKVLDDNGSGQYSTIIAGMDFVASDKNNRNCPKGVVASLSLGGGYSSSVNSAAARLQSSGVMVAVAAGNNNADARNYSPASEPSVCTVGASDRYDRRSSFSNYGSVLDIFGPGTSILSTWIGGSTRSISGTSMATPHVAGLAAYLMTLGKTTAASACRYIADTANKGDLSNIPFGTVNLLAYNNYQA
Protocol: as §5, §6, §7

ASF1A(1–156) [6] = biological target: T2, ASF1A(1–156) (UniProt Q9Y294 1-156, uniformly 15N labelled (in the chemical-shift-perturbation study only)); test: ITC; H3 peptides with ASF1A(1–156); exothermic, fitted to a 1:1 binding isotherm; conditions not shown; details: both partners purified
T2 construct: ASF1A (anti-silencing function 1A), histone chaperone, conserved N-terminal domain, residues 1-156; The same construct limits as in PDB 2IIJ; also called anti-silencing function 1
T2 sequence (Q9Y294 1-156): as the sequence (Q9Y294 1-156) above

[7] = trypsin, fitted half-life, 50 mM Tris, pH 8, 100 mM NaCl, room temperature, 50 M peptide, 0.05 g/ml trypsine (µ lost in print), LC-ESI-MS, intact peptide relative to t=0, exponential decay fit, read-out: Trypsin t 1/2

Kd (ASF1A(1–156) [6]) [nM] | dH (ASF1A(1–156) [6]) [kcal/M] | stoichiometry N (ASF1A(1–156) [6]) | Molecule | % helicity [1] [%] | half-life at 50 µM (trypsin; [7]) [min] | ΔG (ASF1A(1–156) [2]) [kcal M ^−1] | chemical-shift variation at the B domain binding site (S59–F72) of ASF1 (nonspecific binding) (ASF1A(1–156) [3]) | half-life at 50 µM (proteinase K [4]) [min] | TΔS (ASF1A(1–156) [2]) | ΔH (ASF1A(1–156) [2]) | half-life at 50 µM (trypsin; isolated enzyme trypsin, pH 8) [min] | time within which peptide was cleaved by proteinase K (proteinase K [5]) [min]
– | – | – | CC[C@H](C)[C@H](NC(=O)[C@H](CCCNC(=N)N)NC(=O)[C@H](CCCNC(=N)N)NC(=O)[C@H](C)NC(=O)[C@H](CC(C)C)NC(=O)[C@H](CCC(N)=O)NC(=O)[C@@H]1CCCC=CCCC[C@H](NC(=O)[C@H](C)NC(=O)CNC(C)=O)C(=O)NCC(=O)N[C@@H](CCCCN)C(=O)N[C@@H](CC(=O)O)C(=O)N1)C(=O)N[C@@H](CCCNC(=N)N)C(=O)NCC(=O)N[C@@H](CCC(=O)O)C(=O)N[C@@H](CCCNC(=N)N)C(=O)N[C@@H](C)C(N)=O [H3_118–135(St120–124)] (Ac-GA[Nle(6-ylidene)]GKD[Nle(6-ylidene)]QLARRIRGERA-NH2; staple 3-7) | 20 | 14.9 ± 2.5 | −8.3±0.07 | exhibited chemical‐shift variations | 65.8 ± 15.7 | – | – | – | –
– | – | – | CC[C@H](C)[C@H](NC(=O)[C@H](CCCNC(=N)N)NC(=O)[C@H](CCCNC(=N)N)NC(=O)[C@@H]1CCCC=CCCC[C@H](NC(=O)[C@H](CCCCN)NC(=O)CNC(=O)[C@H](CCSC)NC(=O)[C@H](C)NC(=O)CNC(C)=O)C(=O)N[C@@H]([C@@H](C)CC)C(=O)N[C@@H](CCC(N)=O)C(=O)N[C@@H](CC(C)C)C(=O)N1)C(=O)N[C@@H](CCCNC(=N)N)C(=O)NCC(=O)N[C@@H](CCC(=O)O)C(=O)N[C@@H](CCCNC(=N)N)C(=O)N[C@@H](C)C(=O)NCC(=O)N[C@@H](CS)C(=O)N[C@@H](C)C(N)=O [H3_118–135(St123–127)GCA] (Ac-GAMGK[Nle(6-ylidene)]IQL[Nle(6-ylidene)]RRIRGERAGCA-NH2; staple 6-10) | 29 | 40.5 ± 16.9 | −7.3±0.05 | no chemical‐shift variation | 23.1 ± 2.6 | 3.1 kcal M ^−1 and 3.1±0.2 kcal M ^−1 | −4.2 kcal M ^−1 and −4.2±0.08 kcal M ^−1 | – | –
– | – | – | Ac-GAMGKDIQLARRIRGERA-NH2 [H3_118–135] | 15 | – | −8.0±0.14 | exhibited chemical‐shift variations | 12.2 ± 0.8 | −6.4 to −6.7 kcal M ^−1 and −6.4±0.51 kcal M ^−1 | −14.4 to −15.0 kcal M ^−1 and −14.4±0.37 kcal M ^−1 | 13.3 ± 1.5 | ≤ 14
1340 ± 330 | -14.4 ± 0.37 | 0.94 ± 0.04 | TIMPKDIQLARRIRGERA (peptide, UniProt P68431 119-136, looked up, histone H3, C-terminal helix peptide, residues 118-135; also called histone H3(118–135); unconstrained H3_(118–135); source: synthetic peptide (solid-phase peptide synthesis)) [H3_(118–135)] | – | – | – | – | – | – | – | – | –
